For this experiment, the target named is T1, human B-Raf (Homo sapiens, UniProt P15056).
T1 construct: Flag; GST; made in house; host or cells: Sf9 insect cells (B-Raf); E. coli (MEK1-GST)
As to the kind of experiment: B-Raf Kinase to MEK1 ELISA. In kind it is biochemical. The following applies: for IC50: median, cpd concentrations from 10 μM to 30 nM in half log dilutions, read-out: Median IC50; for inhibition at 10 µM: read-out: % Inhib./10 uM. An excerpt:
TITLE: B-Raf Kinase to MEK1 ELISA
PURPOSE: To discover B-Raf Kinase inhibitors that can inhibit growth of tumor cells which contain oncogenic forms of Receptor Tyrosine Kinases or K-Ras, or B-Raf kinase.
Reagents: Flag/GST-tagged recombinant human B-Raf produced in Sf9 insect cells, human non-active Mek-1-GST (recombinant protein produced in E. coli); and a phospho-MEK1 specific poly-clonal Ab from Cell Signaling Technology (cat. #9121).
B-Raf1 Kinase Assay Procedure:
B-Raf-1 is used to phosphorylate GST-MEK1. MEK1 phosphorylation is measured by a phospho-specific antibody (from Cell Signaling Technology, cat. #9121) that detects phosphorylation of two serine residues at positions 217 and 221 on MEK1.
B-Raf Assay Stock Solutions:
1. Assay Dilution Buffer (ADB): 20 mM MOPS, pH 7.2, 25 mM β-glycerol phosphate, 5 mM EGTA, 1 mM sodium orthovanadate, 1 mM dithiothreitol.
2. Magnesium/ATP Cocktail: 200 μM cold ATP and 40 mM magnesium chloride in ADB.
3. Active Kinase: Active B-Raf: used at ˜20 ng per assay point.
4. Non-active GST-MEK1: Use at 100 nM (50 nM final).
6. Anti-GST Ab (Pharmacia)
7. Anti-rabbit Ab/Europium conjugate (Wallac)
1. Add 25 μl of ADB containing B-Raf and Mek per assay (i.e. per well of a 96 well plate)
2. Add 25 μl of 0.2 mM ATP and 40 mM magnesium chloride in ADB.
3. Incubate for 60 minutes at RT in a shaking incubator.
4. Transfer this mixture to an anti-GST Ab coated 96 well plate (Nunc Immunosorb plates coated o/n with a-GST.
5. Incubate for 60 minutes at 30° C. in a shaking incubator
6. Wash 3× with TBST, add Anti-Phospho MEK1 (1:1000)
7. Incubate for 60 minutes at 30° C. in a shaking incubator
8. Wash 3× with TBST, add Anti-rabbit Ab/Europium conjugate (Wallac) (1:500)
9. Incubate for 60 minutes at 30° C. in a shaking incubator
10. Add 100 ul of Wallac Delfia Enhancement Solution and shake for 10 minutes.
11. Read plates in Wallac Victor model Plate Reader.
12. Collect data analyze in Excel for single point and IC50 determinations.
Typically Raf-1 assay is run at cpd concentrations from 10 μM to 30 nM in half log dilutions. (% inhibition is determined for each cpd concentration)
In general terms: ELISA stands for enzyme-linked immunosorbent assay.

Read-outs that look alike come from different tables or passages of the source.

What is called IC50 is the concentration that gives 50% inhibition.

T1 sequence (P15056 whole entry): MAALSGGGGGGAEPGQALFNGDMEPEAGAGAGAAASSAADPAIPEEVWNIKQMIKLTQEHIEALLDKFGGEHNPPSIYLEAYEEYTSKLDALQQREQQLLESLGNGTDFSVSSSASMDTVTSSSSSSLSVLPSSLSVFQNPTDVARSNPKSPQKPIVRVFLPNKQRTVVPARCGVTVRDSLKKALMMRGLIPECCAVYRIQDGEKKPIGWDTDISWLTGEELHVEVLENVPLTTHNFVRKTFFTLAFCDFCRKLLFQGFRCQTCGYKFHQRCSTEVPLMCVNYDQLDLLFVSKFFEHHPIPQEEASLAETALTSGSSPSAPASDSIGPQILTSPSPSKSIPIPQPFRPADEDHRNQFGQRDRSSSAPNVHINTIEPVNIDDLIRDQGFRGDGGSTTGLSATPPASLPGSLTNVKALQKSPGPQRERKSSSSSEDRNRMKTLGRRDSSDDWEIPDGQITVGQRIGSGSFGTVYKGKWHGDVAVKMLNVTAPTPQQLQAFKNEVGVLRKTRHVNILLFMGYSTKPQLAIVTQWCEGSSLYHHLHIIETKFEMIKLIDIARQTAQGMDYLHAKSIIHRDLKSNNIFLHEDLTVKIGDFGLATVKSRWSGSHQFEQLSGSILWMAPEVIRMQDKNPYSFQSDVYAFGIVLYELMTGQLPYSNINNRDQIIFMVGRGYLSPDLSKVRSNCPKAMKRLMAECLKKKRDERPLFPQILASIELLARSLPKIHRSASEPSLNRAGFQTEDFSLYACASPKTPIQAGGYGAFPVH

For the compound `O=C(Nc1cccc(-c2ccnc3c(C(=O)Nc4cccnc4)cnn23)c1)c1cccc(C(F)(F)F)c1` [Example 47, N-pyridin-3-yl-7-(3-{[3-(trifluoromethyl)benzoyl]amino}phenyl)pyrazolo[1,5-a]pyrimidine-3-carboxamide], the IC50 is over 10 µM and the inhibition at 10 µM was 35%. For `O=C(Nc1cccc(-c2ccnc3c(C(=O)NCCN4CCCC4)cnn23)c1)c1cccc(C(F)(F)F)c1` [Example 48, N-(2-pyrrolidin-1-ylethyl)-7-(3-{[3-(trifluoromethyl)benzoyl]amino}phenyl)pyrazolo[1,5-a]pyrimidine-3-carboxamide], the inhibition at 10 µM was 43%.

Regarding `CN(C)CCNC(=O)c1cnn2c(-c3cccc(NC(=O)c4cccc(C(F)(F)F)c4)c3)ccnc12` [Example 49, N-[2-(dimethylamino)ethyl]-7-(3-{[3-(trifluoromethyl)benzoyl]amino}phenyl)pyrazolo[1,5-a]pyrimidine-3-carboxamide], the concentration for half-maximal inhibition (IC50) came to 5.94 µM and the inhibition at 10 µM is 62%. `CN1CCN(CCCNC(=O)c2cnn3c(-c4cccc(NC(=O)c5cccc(C(F)(F)F)c5)c4)ccnc23)CC1` [Example 50, N-[3-(4-methylpiperazin-1-yl)propyl]-7-(3-{[3-(trifluoromethyl)benzoyl]amino}phenyl)pyrazolo[1,5-a]pyrimidine-3-carboxamide]: the IC50 was determined as 8 µM and the inhibition at 10 µM was 42%. With `CCNC(=O)c1cnn2c(-c3cccc(NC(=O)c4cccc(C(F)(F)F)c4)c3)ccnc12` [Example 51, N-ethyl-7-(3-{[3-(trifluoromethyl)benzoyl]amino}phenyl)pyrazolo[1,5-a]pyrimidine-3-carboxamide], the inhibition at 10 µM is 50%. As for `O=C(Nc1cccc(-c2ccnc3c(C(=O)NCCN4CCOCC4)cnn23)c1)c1cccc(C(F)(F)F)c1` [Example 52, N-(2-morpholin-4-ylethyl)-7-(3-{[3-(trifluoromethyl)benzoyl]amino}phenyl)pyrazolo[1,5-a]pyrimidine-3-carboxamide], the IC50 worked out at 8 µM and the inhibition at 10 µM was determined as 60%. For the compound `O=C(Nc1cccc(-c2ccnc3c(C(=O)NCCCN4CCOCC4)cnn23)c1)c1cccc(C(F)(F)F)c1` [Example 53, N-(3-morpholin-4-ylpropyl)-7-(3-{[3-(trifluoromethyl)benzoyl]amino}phenyl)pyrazolo[1,5-a]pyrimidine-3-carboxamide], the IC50 was 5 µM and the inhibition at 10 µM came out at 55%. For `CN1CCCC1CCNC(=O)c1cnn2c(-c3cccc(NC(=O)c4cccc(C(F)(F)F)c4)c3)ccnc12` (stereo not drawn) [Example 54, N-[2-(1-methylpyrrolidin-2-yl)ethyl]-7-(3-{[3-(trifluoromethyl)benzoyl]amino}phenyl)pyrazolo[1,5-a]pyrimidine-3-carboxamide], the IC50 was over 10 µM and the inhibition at 10 µM amounted to 32%. Turning to `O=C(Nc1cccc(-c2ccnc3c(C(=O)NCCCn4ccnc4)cnn23)c1)c1cccc(C(F)(F)F)c1` [Example 55, N-[3-(1H-imidazol-1-yl)propyl]-7-(3-{[3-(trifluoromethyl)benzoyl]amino}phenyl)pyrazolo[1,5-a]pyrimidine-3-carboxamide], the IC50 is 2.1 µM and the inhibition at 10 µM came out at 70%. With `COCCCNC(=O)c1cnn2c(-c3cccc(NC(=O)c4cccc(C(F)(F)F)c4)c3)ccnc12` [Example 56, N-(3-methoxypropyl)-7-(3-{[3-(trifluoromethyl)benzoyl]amino}phenyl)pyrazolo[1,5-a]pyrimidine-3-carboxamide], the IC50 turned out to be 1 µM and the inhibition at 10 µM worked out at 60%.

For `O=C(Nc1cccc(-c2ccnc3c(C(=O)NCc4ccccc4)cnn23)c1)c1cccc(C(F)(F)F)c1` [Example 57, N-benzyl-7-(3-{[3-(trifluoromethyl)benzoyl]amino}phenyl)pyrazolo[1,5-a]pyrimidine-3-carboxamide], the IC50 is 1.64 µM and the inhibition at 10 µM was found to be 51%. Turning to `CCOC(=O)c1c(C)nn2c(-c3cccc(NC(=O)c4cccc(C(F)(F)F)c4)c3)ccnc12` [Example 58, Ethyl 2-methyl-7-(3-{[3-(trifluoromethyl)benzoyl]amino}phenyl)pyrazolo[1,5-a]pyrimidine-3-carboxylate], the IC50 is over 10 µM and the inhibition at 10 µM came to 4%. For `O=C(Nc1cccc(-c2ccnc3c(-c4ccccn4)cnn23)c1)c1cccc(C(F)(F)F)c1` [Example 59, N-[3-(3-pyridin-2-ylpyrazolo[1,5-a]pyrimidin-7-yl)phenyl]-3-(trifluoromethyl)benzamide], the IC50 was over 10 µM and the inhibition at 10 µM is 37%. Regarding `O=C(Nc1cccc(-c2ccnc3c(-c4nn[nH]n4)cnn23)c1)c1cccc(C(F)(F)F)c1` [Example 60, N-{3-[3-(2H-tetrazol-5-yl)pyrazolo[1,5-a]pyrimidin-7-yl]phenyl}-3-(trifluoromethyl)benzamide], the IC50 is over 10 µM and the inhibition at 10 µM stood at 1%. With `NC(=O)c1cnn2c(-c3cccc(NC(=O)c4cccc(C(F)(F)F)c4)c3)ccnc12` [Example 61, 7-(3-{[3-(trifluoromethyl)benzoyl]amino}phenyl)pyrazolo[1,5-a]pyrimidine-3-carboxamide], the IC50 was over 10 µM and the inhibition at 10 µM came to 16%. In the case of `N#Cc1c(N2CCNCC2)nn2c(-c3cccc(NC(=O)c4cccc(C(F)(F)F)c4)c3)ccnc12` [Example 62, N-[3-(3-cyano-2-piperazin-1-ylpyrazolo[1,5-a]pyrimidin-7-yl)phenyl]-3-(trifluoromethyl)benzamide], the inhibition at 10 µM amounted to 54%.

Regarding `N#Cc1cnn2c(-c3cccc(NC(=O)c4cccc(C(F)(F)F)c4)c3)ccnc12` [Example 63, N-[3-(3-cyanopyrazolo[1,5-a]pyrimidin-7-yl)phenyl]-3-(trifluoromethyl)benzamide], the IC50 is over 10 µM. Besides, for the setting “single point assay, 10 uM”, the inhibition at 10 µM was 14%. Turning to `CCOC(=O)c1c(C)nn2c(-c3cccc(NC(=O)c4ccc(C)c(C(F)(F)F)c4)c3)ccnc12` [Example 64, ethyl 2-methyl-7-(3-{[4-methyl-3-(trifluoromethyl)benzoyl]amino}phenyl)pyrazolo[1,5-a]pyrimidine-3-carboxylate], the IC50 was over 10 µM and the inhibition at 10 µM stood at 4%. For `Cc1ccc(C(=O)Nc2cccc(-c3ccnc4c(-c5ccccn5)cnn34)c2)cc1C(F)(F)F` [Example 65, 4-methyl-N-[3-(3-pyridin-2-ylpyrazolo[1,5-a]pyrimidin-7-yl)phenyl]-3-(trifluoromethyl)benzamide], in that order: over 10 µM and 30%. As for `Cc1ccc(C(=O)Nc2cccc(-c3ccnc4c(-c5nn[nH]n5)cnn34)c2)cc1C(F)(F)F` [Example 66, 4-methyl-N-{3-[3-(2H-tetrazol-5-yl)pyrazolo[1,5-a]pyrimidin-7-yl]phenyl}-3-(trifluoromethyl)benzamide], the IC50 was over 10 µM and the inhibition at 10 µM was 18%.

In the case of `Cc1ccc(C(=O)Nc2cccc(-c3ccnc4c(C(N)=O)cnn34)c2)cc1C(F)(F)F` [Example 67, 7-(3-{[4-methyl-3-(trifluoromethyl)benzoyl]amino}phenyl)pyrazolo[1,5-a]pyrimidine-3-carboxamide], the IC50 is over 10 µM and the inhibition at 10 µM was found to be 6%. In the case of `Cc1ccc(C(=O)Nc2cccc(-c3ccnc4c(C#N)c(N5CCNCC5)nn34)c2)cc1C(F)(F)F` [Example 68, N-[3-(3-cyano-2-piperazin-1-ylpyrazolo[1,5-a]pyrimidin-7-yl)phenyl]-4-methyl-3-(trifluoromethyl)benzamide], the IC50 was 8.4 µM and the inhibition at 10 µM amounted to 45%. Taken in the same sequence, the figures for `Cc1ccc(C(=O)Nc2cccc(-c3ccnc4c(C#N)cnn34)c2)cc1C(F)(F)F` [Example 69, N-[3-(3-cyanopyrazolo[1,5-a]pyrimidin-7-yl)phenyl]-4-methyl-3-(trifluoromethyl)benzamide] were over 10 µM and 13%. `CCOC(=O)c1cnn2c(-c3cccc(NC(=O)c4cccc(Cl)c4)c3)ccnc12` [Example 70, Ethyl 7-{3-[(3-chlorobenzoyl)amino]phenyl}pyrazolo[1,5-a]pyrimidine-3-carboxylate]: the IC50 is over 10 µM and the inhibition at 10 µM amounted to 0%.

Source of the values: patent publication US20070219186A1, “Pyrazolo[1,5-A]pyrimidine derivatives and methods of use thereof” (priority 2006, published 2007).
